{"source": "paper PMC7985749", "about": "(CNS Drugs, 2021)", "key": {"[1]": {"assay": "Plasma pharmacokinetics, single ascending dose", "assay_type": "in vivo, human", "settings": "for Tmax / half-life / AUC(0-inf) / AUC(0-t) / Cmax / Vd/F: human, plasma"}, "[2]": {"assay": "Adverse events / TEAEs, older adult", "assay_type": "in vivo, human"}, "[3]": {"assay": "Rodent models: therapeutic effect versus hematopoietic impact", "assay_type": "in vivo", "settings": "rodents"}, "[4]": {"assay": "Safety and tolerability, all study stages", "assay_type": "in vivo, human"}, "[5]": {"assay": "Adverse events / TEAEs, SAD cohort", "assay_type": "in vivo, human"}, "[6]": {"assay": "Adverse events / TEAEs, MAD cohort", "assay_type": "in vivo, human"}, "[7]": {"settings": "Elderly cohort, active treatment, 5 days, n = 3"}}, "data": [{"smiles": "Nc1nnc(CN[C@@H]2C[C@H]2c2ccc(OCc3ccccc3)cc2)o1", "note": "[vafidemstat]", "values": [{"measurement": "Variability, overall coefficient of variation", "setting": "[1]; SAD and MAD cohorts, plasma PK", "value": "≤ 30", "unit": "%"}, {"measurement": "Tmax", "setting": "[1]; both, oral", "value": "0.5 to 2", "unit": "h"}, {"measurement": "half-life", "setting": "[1]; both, oral", "value": "20 to 30", "unit": "h"}, {"measurement": "AUC(0-inf)", "setting": "[1]; male, po, 0.2 mg", "value": 30.9, "unit": "ng·h/mL"}, {"measurement": "AUC(0-t)", "setting": "[1]; male, po, 0.2 mg", "value": 28, "unit": "ng·h/mL"}, {"measurement": "Cmax", "setting": "[1]; male, po, 0.2 mg", "value": 1.11, "unit": "ng/mL"}, {"measurement": "Tmax", "setting": "[1]; male, po, 0.2 mg", "value": 2.75, "unit": "h"}, {"measurement": "Vd/F", "setting": "[1]; male, po, 0.2 mg", "value": 260, "unit": "L"}, {"measurement": "half-life", "setting": "[1]; male, po, 0.2 mg", "value": 28, "unit": "h"}, {"measurement": "AUC(0-inf)", "setting": "[1]; male, po, 0.6 mg", "value": 90.7, "unit": "ng·h/mL"}, {"measurement": "AUC(0-t)", "setting": "[1]; male, po, 0.6 mg", "value": 83.3, "unit": "ng·h/mL"}, {"measurement": "Cmax", "setting": "[1]; male, po, 0.6 mg", "value": 3.21, "unit": "ng/mL"}, {"measurement": "Tmax", "setting": "[1]; male, po, 0.6 mg", "value": 1.83, "unit": "h"}, {"measurement": "Vd/F", "setting": "[1]; male, po, 0.6 mg", "value": 256, "unit": "L"}, {"measurement": "half-life", "setting": "[1]; male, po, 0.6 mg", "value": 27, "unit": "h"}, {"measurement": "AUC(0-inf)", "setting": "[1]; male, po, 1.5 mg", "value": 428, "unit": "ng·h/mL"}, {"measurement": "AUC(0-t)", "setting": "[1]; male, po, 1.5 mg", "value": 297, "unit": "ng·h/mL"}, {"measurement": "Cmax", "setting": "[1]; male, po, 1.5 mg", "value": 11.9, "unit": "ng/mL"}, {"measurement": "Tmax", "setting": "[1]; male, po, 1.5 mg", "value": 0.92, "unit": "h"}, {"measurement": "Vd/F", "setting": "[1]; male, po, 1.5 mg", "value": 213, "unit": "L"}, {"measurement": "half-life", "setting": "[1]; male, po, 1.5 mg", "value": 41, "unit": "h"}, {"measurement": "AUC(0-inf)", "setting": "[1]; male, po, 2.5 mg", "value": 438, "unit": "ng·h/mL"}, {"measurement": "AUC(0-t)", "setting": "[1]; male, po, 2.5 mg", "value": 402, "unit": "ng·h/mL"}, {"measurement": "Cmax", "setting": "[1]; male, po, 2.5 mg", "value": 18.8, "unit": "ng/mL"}, {"measurement": "Tmax", "setting": "[1]; male, po, 2.5 mg", "value": 1.58, "unit": "h"}, {"measurement": "Vd/F", "setting": "[1]; male, po, 2.5 mg", "value": 203, "unit": "L"}, {"measurement": "half-life", "setting": "[1]; male, po, 2.5 mg", "value": 25, "unit": "h"}, {"measurement": "AUC(0-inf)", "setting": "[1]; male, po, 4 mg", "value": 568, "unit": "ng·h/mL"}, {"measurement": "AUC(0-t)", "setting": "[1]; male, po, 4 mg", "value": 550, "unit": "ng·h/mL"}, {"measurement": "Cmax", "setting": "[1]; male, po, 4 mg", "value": 38, "unit": "ng/mL"}, {"measurement": "Tmax", "setting": "[1]; male, po, 4 mg", "value": 1.71, "unit": "h"}, {"measurement": "Vd/F", "setting": "[1]; male, po, 4 mg", "value": 204, "unit": "L"}, {"measurement": "half-life", "setting": "[1]; male, po, 4 mg", "value": 20, "unit": "h"}, {"measurement": "Number of TEAEs (% of total TEAEs): Asthenia", "setting": "[2]; [7]", "value": "1 (4.8) n (%)"}, {"measurement": "Number of TEAEs (% of total TEAEs): Blunted effect", "setting": "[2]; [7]", "value": "1 (4.8) n (%)"}, {"measurement": "Number of TEAEs (% of total TEAEs): Feeling cold", "setting": "[2]; [7]", "value": "1 (4.8) n (%)"}, {"measurement": "Number of TEAEs (% of total TEAEs): Gait disturbance", "setting": "[2]; [7]", "value": "1 (4.8) n (%)"}, {"measurement": "Number of TEAEs (% of total TEAEs): Headache", "setting": "[2]; [7]", "value": "3 (14.3) n (%)"}, {"measurement": "Number of TEAEs (% of total TEAEs): Musculoskeletal stiffness", "setting": "[2]; [7]", "value": "1 (4.8) n (%)"}, {"measurement": "Number of TEAEs (% of total TEAEs): Palpitations", "setting": "[2]; [7]", "value": "1 (4.8) n (%)"}, {"measurement": "Number of TEAEs (% of total TEAEs): Total", "setting": "[2]; [7]", "value": "10 (47.6) n (%)"}, {"measurement": "Number of TEAEs (% of total TEAEs): Vertigo", "setting": "[2]; [7]", "value": "1 (4.8) n (%)"}, {"measurement": "Number of treatment-related TEAEs", "setting": "[2]; MAD stage in older adult volunteers, with vafidemstat", "value": 10}, {"measurement": "Window between the therapeutic effect and hematopoietic impact", "setting": "[3]", "value": 30, "unit": "fold"}, {"measurement": "Serious adverse events (SAEs)", "setting": "[4]; during the study", "value": "No SAEs"}, {"measurement": "Changes over time in hematological, biochemical, urinalysis parameters, vital signs, ECG values", "setting": "[4]; planned SAD or MAD (including older adult) cohorts", "value": "No significant changes"}, {"measurement": "Number of AEs reported by subjects receiving vafidemstat", "setting": "[4]; three study stages (SAD, MAD, older adult), 120 AEs in total", "value": 90}, {"measurement": "Number of TEAEs possibly or probably related to the study drug", "setting": "[4]; volunteers treated with vafidemstat, three study stages, 108 TEAEs in total", "value": 79}, {"measurement": "Number of treatment-related AEs", "setting": "[5]; SAD stage, subjects receiving vafidemstat", "value": 12}, {"measurement": "Number of TEAEs (% of total TEAEs): Headache", "setting": "[5]; SAD, 0.2 mg, n = 6", "value": "1 (7.7) n (%)"}, {"measurement": "Number of TEAEs (% of total TEAEs): Total", "setting": "[5]; SAD, 0.2 mg, n = 6", "value": "1 (7.7) n (%)"}, {"measurement": "Number of TEAEs (% of total TEAEs): Euphoric mood", "setting": "[5]; SAD, 0.6 mg, n = 6", "value": "1 (7.7) n (%)"}, {"measurement": "Number of TEAEs (% of total TEAEs): Feeling hot", "setting": "[5]; SAD, 0.6 mg, n = 6", "value": "1 (7.7) n (%)"}, {"measurement": "Number of TEAEs (% of total TEAEs): Headache", "setting": "[5]; SAD, 0.6 mg, n = 6", "value": "1 (7.7) n (%)"}, {"measurement": "Number of TEAEs (% of total TEAEs): Total", "setting": "[5]; SAD, 0.6 mg, n = 6", "value": "3 (23.1) n (%)"}, {"measurement": "Number of TEAEs (% of total TEAEs): Musculoskeletal stiffness", "setting": "[5]; SAD, 1.5 mg, n = 6", "value": "1 (7.7) n (%)"}, {"measurement": "Number of TEAEs (% of total TEAEs): Paresthesia", "setting": "[5]; SAD, 1.5 mg, n = 6", "value": "1 (7.7) n (%)"}, {"measurement": "Number of TEAEs (% of total TEAEs): Total", "setting": "[5]; SAD, 1.5 mg, n = 6", "value": "2 (15.4) n (%)"}, {"measurement": "Number of TEAEs (% of total TEAEs): Abdominal discomfort", "setting": "[5]; SAD, 2.5 mg, n = 6", "value": "1 (7.7) n (%)"}, {"measurement": "Number of TEAEs (% of total TEAEs): Asthenia", "setting": "[5]; SAD, 2.5 mg, n = 6", "value": "1 (7.7) n (%)"}, {"measurement": "Number of TEAEs (% of total TEAEs): Dry mouth", "setting": "[5]; SAD, 2.5 mg, n = 6", "value": "1 (7.7) n (%)"}, {"measurement": "Number of TEAEs (% of total TEAEs): Total", "setting": "[5]; SAD, 2.5 mg, n = 6", "value": "3 (23.1) n (%)"}, {"measurement": "Number of TEAEs (% of total TEAEs): Blunted affect", "setting": "[5]; SAD, 4.0 mg, n = 6", "value": "1 (7.7) n (%)"}, {"measurement": "Number of TEAEs (% of total TEAEs): Euphoric mood", "setting": "[5]; SAD, 4.0 mg, n = 6", "value": "1 (7.7) n (%)"}, {"measurement": "Number of TEAEs (% of total TEAEs): Headache", "setting": "[5]; SAD, 4.0 mg, n = 6", "value": "1 (7.7) n (%)"}, {"measurement": "Number of TEAEs (% of total TEAEs): Total", "setting": "[5]; SAD, 4.0 mg, n = 6", "value": "3 (23.1) n (%)"}, {"measurement": "Number of AEs related to the study treatment", "setting": "[6]; MAD stage, healthy young volunteers, with vafidemstat", "value": 44}, {"measurement": "Number of TEAEs (% of total TEAEs): Asthenia", "setting": "[6]; MAD, 0.2 mg/day, n = 6", "value": "2 (3.3) n (%)"}, {"measurement": "Number of TEAEs (% of total TEAEs): Dizziness postural", "setting": "[6]; MAD, 0.2 mg/day, n = 6", "value": "1(1.6) n (%)"}, {"measurement": "Number of TEAEs (% of total TEAEs): Feeling hot", "setting": "[6]; MAD, 0.2 mg/day, n = 6", "value": "1(1.6) n (%)"}, {"measurement": "Number of TEAEs (% of total TEAEs): Headache", "setting": "[6]; MAD, 0.2 mg/day, n = 6", "value": "3 (4.9) n (%)"}, {"measurement": "Number of TEAEs (% of total TEAEs): Hematoma", "setting": "[6]; MAD, 0.2 mg/day, n = 6", "value": "1 (1.6) n (%)"}, {"measurement": "Number of TEAEs (% of total TEAEs): Muscle spasms", "setting": "[6]; MAD, 0.2 mg/day, n = 6", "value": "1(1.6) n (%)"}, {"measurement": "Number of TEAEs (% of total TEAEs): Palpitations", "setting": "[6]; MAD, 0.2 mg/day, n = 6", "value": "1 (1.6) n (%)"}]}]}
